# Values quoted from earlier work in patent US10485825B2, “Prevention of pregnancy complications by noble gas administration” (NOBLIS THERAPEUTICS, INC., priority 2016, dated 2019).
# System: Tregs
# Conditions: CCL20 stimulation; blocked by neutralizing anti-CCL20 antibody
substance,measurement,value
CCL20: CCL20 protein used to stimulate Treg migration in a cited study,increase in migration of CCL20-stimulated Tregs,3.21 fold
